# System: human dermal papilla cells
# Experiment: Human dermal papilla cell proliferation test
# Format: cell-based
# Conditions: 0.002% in culture media; cell count at 12-60 hour; FIG. 1; result in words
# Protocol: The promotion of cell proliferation by adenine was evaluated using human dermal papilla cells, compared with adenosine, and minoxidil under the following conditions, the results are shown in FIG. 1. Determination of the proliferation of human dermal papilla cells in the culture media containing adenine, adenosine, and minoxidil. Supplements: 0.002% of adenine, adenosine, minoxidil. • (1) Prepare 0.002% adenine, adenosine, minoxidil containing testing media using the hair follicle dermal papilla cell media (cat. No. 611-500, Cell applications, Inc) . • (2) Seed the isolated human dermal papilla cells in 96-well culture plate with a density of 5,000 cells per well. Add 0.1 mL prepared culture media into individual well. • (3) At 12, 24, 36, 48 and 60 hour after cell seeding, visually count the total cell number using hemacytometer. • (4) Evaluate the result.
smiles,measurement,value
Nc1ncnc2nc[nH]c12 [adenine],proliferation of human dermal papilla cells,promotes the proliferation

# Reference: patent publication EP2465581B1, “Non-therapeutic use of a composition for promoting hair growth” (Energenesis Biomedical Co., Ltd., priority 2010, dated 2012)
